Measured values reported in patent publication US6875760B2 (Novo Nordisk A/S, priority 1999, dated 2005).

Target: T1, human glucagon receptor (Homo sapiens, UniProt P47871)
T1 construct: expressed in transfected cells; host or cells: BHK (baby hamster kidney) cells
Test: Glucagon Binding Assay (III)
Conditions: BHK cell membranes, WGA SPA beads, 125I-glucagon; read-out: Glu Bd Assay (III) IC50
Method in brief: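 Membranes from BHK cells transfected with the human receptor, prepared at 4 °C, were used in a WGA-bead scintillation proximity binding format. Plates were shaken for 4 hours, left to settle 8–48 hours and then counted. Non-specific binding was defined with 500 nM glucagon.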

T1 sequence (P47871 26-477): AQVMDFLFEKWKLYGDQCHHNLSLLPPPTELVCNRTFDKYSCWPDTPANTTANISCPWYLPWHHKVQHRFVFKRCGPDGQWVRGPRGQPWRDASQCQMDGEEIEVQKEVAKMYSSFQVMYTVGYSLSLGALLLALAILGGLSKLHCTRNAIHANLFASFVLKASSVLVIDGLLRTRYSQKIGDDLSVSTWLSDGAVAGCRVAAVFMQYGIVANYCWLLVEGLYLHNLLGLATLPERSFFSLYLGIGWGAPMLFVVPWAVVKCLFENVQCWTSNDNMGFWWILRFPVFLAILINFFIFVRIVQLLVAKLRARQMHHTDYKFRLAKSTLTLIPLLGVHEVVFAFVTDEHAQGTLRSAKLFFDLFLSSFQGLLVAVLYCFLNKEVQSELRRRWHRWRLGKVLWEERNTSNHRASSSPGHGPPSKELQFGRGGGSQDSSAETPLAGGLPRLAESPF

Row | IC50 | SMILES
1 | 4 nM | O=C(Nc1nn[nH]n1)c1ccc(CN(C(=O)Nc2ccc3c(c2)C(=O)N(CC2CC2)C3=O)c2ccc(C3CCCCC3)cc2)cc1 [Example 639, 4-[1-(4-Cyclohexylphenyl)-3-(N′-[cyclopropylmethyl]phthalimid-4-yl)ureidomethyl]-N-(2H-tetrazol-5-yl)benzamide]
2 | 22 nM | CC(c1ccc(C(=O)Nc2nn[nH]n2)cc1)N(C(=O)Nc1ccc(OC(F)(F)F)cc1)c1ccc(C(C)(C)C)cc1 (stereo not drawn) [Example 646, 4-{1-[1-(4-tert-Butylphenyl)-3-(4-trifluoromethoxyphenyl)ureido]ethyl}-N-(2H-tetrazol-5-yl)benzamide]
3 | 955 nM | CC(C)(C)C1CCC(N(Cc2ccc(C(=O)Nc3nn[nH]n3)cc2)C(=O)/C=C/c2cccs2)CC1 (stereo not drawn) [Example 476, 4-{[(4-tert-Butylcyclohexyl)-(3-thiophen-2-ylacryloyl)amino]methyl}-N-(2H-tetrazol-5-yl)benzamide]

Target: T2, cloned human glucagon receptor (Homo sapiens, UniProt P47871)
T2 construct: expressed in transfected cells; plasma membrane preparation
Test: Glucagon Binding Assay (II)
Conditions: plasma membranes of BHK cells expressing the receptor; read-out: Glu Bd Assay (II) IC50
Method: Binding of compounds to the glucagon receptor was determined in a competition binding assay using the cloned human glucagon receptor.
The receptor inserted in the pLJ6′ expression vector using EcoRI/SSt1 restriction sites (Lok et al.) was expressed in a baby hamster kidney cell line (A3 BHK 570-25).
The homogenate was resuspended and centrifuged again. The final precipitate containing the plasma membranes was suspended in buffer and stored at −80° C. until use.
Binding assays were carried out in duplicate in polypropylene tubes or microtiter plates. The buffer used in this assay was 50 mM HEPES pH 7.4 containing 5 mM EGTA, 5 mM MgCl2 and 0.005% Tween 20. Sample (glucagon (Bachem CA) or test compounds) was added to each tube or well. Tracer (˜25.000 cpm) was diluted in buffer and was added to each tube or well. 0.5 mg freshly thawed plasma membrane protein diluted in buffer was then added in aliquots to each tube or well. Tubes or plates were incubated at 37° C. for 1 hour. Non-specific binding was determined with 10^−7 M of glucagon. Bound tracer and unbound tracer were then separated by vacuum filtration. The tubes or wells were washed twice with 0.01% Triton X-100 buffer. Scintillation fluid was added to the plates and radioactivity was quantified using a scintillation counter.

T2 sequence (P47871 26-477): as above

Row | SMILES | IC50
4 | Cc1ccc(CN(CCc2ccc(Cl)cc2Cl)Cc2ccc(C(=O)NCCC(=O)O)cc2)cc1 [Example 153] | 454 nM
5 | CCCCOC(=O)c1ccc(NC(=O)N(Cc2ccc(C(=O)NCCC(=O)O)cc2)CC(C)(C)C)cc1 | 230 nM
6 | COC(=O)CCNC(=O)c1ccc(CN(C(=O)Nc2cc(C(F)(F)F)cc(C(F)(F)F)c2)C2CCC(C(C)(C)C)CC2)cc1 (stereo not drawn) | 101 nM
7 | CC(C)(C)C1CCC(N(Cc2ccc(S(=O)(=O)NCCC(=O)O)cc2)C(=O)Nc2ccc(OC(F)(F)F)cc2)CC1 (stereo not drawn) [Example 106, 3-{4-[1-(4-tert-Butylcyclohexyl)-3-(4-trifluoromethoxyphenyl)ureidomethyl]benzenesulfonylamino)propionic acid] | 468 nM
8 | CCCCOC(=O)c1ccc(NC(=O)N(Cc2ccc(C(=O)NCCC(=O)O)cc2)C2CCCC(C)C2)cc1 (stereo not drawn) | 278 nM
9 | C[C@@H](C1CCCCC1)N(Cc1ccc(C(=O)NCCC(=O)O)cc1)C(=O)Nc1cc(Cl)cc(Cl)c1 [Example 140, 3-{4-[1-((1S)-1-Cyclohexylethyl)-3-(3,5-dichlorophenyl)ureidomethyl]benzoylamino)propionic acid] | 574 nM
10 | C[C@H](C1CCCCC1)N(Cc1ccc(C(=O)NCCC(=O)O)cc1)C(=O)Nc1ccc2ccccc2c1 [Example 109, 3-{4-[1-((1R)-1-Cyclohexylethyl)-3-naphthalene-2-ylureidomethyl]benzoylamino)propionic acid] | 916 nM

The next lines start with the values.

Row | IC50 | SMILES
11 | 349 nM | O=C(O)CCNC(=O)c1ccc(CN(C(=O)Nc2ccc(OC(F)(F)F)cc2)C2CC2c2ccccc2)cc1 (stereo not drawn) [Example 231, 3-{4-[1-(2-Phenylcyclopropyl)-3-(4-trifluoromethoxyphenyl)ureidomethyl]benzoylamino}propionic acid]
12 | 16 nM | Cc1cc(C)c(Cc2ccc(C(=O)NN(Cc3ccc(C(=O)NCCC(=O)O)cc3)c3ccc(C4CCCCC4)cc3)o2)c(C)c1 [Example 592, 3-(4-{N-(4-Cyclohexylphenyl)-N′-[5-(2,4,6-trimethylbenzyl)furan-2-carbonyl]hydrazinomethyl}benzoylamino)propionic acid]
13 | 166 nM | O=C(Nc1nn[nH]n1)c1ccc(CN(Cc2ccc(OC(F)(F)F)cc2)[C@H]2CC[C@@H](C3CCCCC3)CC2)cc1 [Example 572, 4-({(4-cis-Cyclohexylcyclohexyl)-[4-(trifluoromethoxy)benzyl]amino}methyl)-N-(2H-tetrazol-5-yl)benzamide]
14 | 354 nM | O=C(Nc1nn[nH]n1)c1ccc(CN(C(=O)Nc2ccc3[nH]ccc3c2)c2ccc(C3CCCCC3)cc2)cc1 [Example 594, 4-{1-(4-Cyclohexylphenyl)-3-(1H-indol-5-yl)ureidomethyl]-N-(2H-tetrazol-5-yl)benzamide]

Same assay, conditions: screened at 1 μM; library compounds; read-out: displacement of the glucagon tracer when screened at 1 μM concentration in the glucagon binding assay II

Row | SMILES | inhibition at 1 µM
15 | O=C(O)CCNC(=O)c1ccc(CN(CCc2ccccc2)Cc2ccc(Oc3ccccc3)cc2)s1 [Example 146, 3-(5-{[(2-Phenylethyl)-(4-phenoxybenzyl)amino]methyl}thiophene-2-carbonylamino)propionic acid] | > 50%
16 | O=C(O)CCNC(=O)c1ccc(CN(CCC(c2ccccc2)c2ccccc2)Cc2ccc(C(F)(F)F)cc2)s1 [Example 142, 3-(5-{[(3,3-Diphenylpropyl)-(4-trifluoromethylbenzyl)amino]methyl}thiophene-2-carbonylamino)propionic acid] | > 50%
17 | O=C(O)CCNC(=O)c1ccc(CN(CCc2cccc(Cl)c2)C(=O)Nc2cccc(SC(F)(F)F)c2)cc1 [Example 201, 3-{4-[1-[2-(3-Chlorophenyl)ethyl]-3-(3-trifluoromethylsulfanylphenyl)ureidomethyl]benzoylamino}propionic acid] | > 50%
18 | CC(=O)N1CCc2cc(N(Cc3ccc(C(=O)NCCC(=O)O)cc3)C(=O)Nc3ccc(Cl)c(C(F)(F)F)c3)ccc21 [Example 194, 3-{4-[1-(1-Acetyl-2,3-dihydro-1H-indol-5-yl)-3-(4-chloro-3-trifluoromethylphenyl)ureidomethyl]benzoylamino}propionic acid] | > 50%
19 | CC(C)(C)C1CCC(N(Cc2ccc(C(=O)Nc3ncnc4[nH]ncc34)cc2)C(=O)Nc2ccc(Cl)cc2)CC1 (stereo not drawn) [Example 164, 4-[1-(4-tert-Butylcyclohexyl)-3-(4-chlorophenyl)ureidomethyl]-N-(1H-pyrazolo[3,4-d]pyrimidin-4-yl)benzamide] | > 50%
20 | CC(C)(C)C1CCC(N(Cc2ccc(C(=O)NCCC(=O)O)cc2)C(=O)Nc2ccc(C(=O)O)cc2)CC1 (stereo not drawn) [Example 196, 4-{3-(4-tert-Butylcyclohexyl)-3-[4-(2-carboxyethylcarbamoyl)benzyl]ureido}benzoic acid] | > 50%
21 | CC1CCCCN1CCCN(Cc1ccc(C(=O)NCCC(=O)O)cc1)C(=O)Nc1ccc(Cl)c(C(F)(F)F)c1 (stereo not drawn) [Example 193, 3-(4-{3-(4-Chloro-3-trifluoromethylphenyl)-1-[3-(2-methylpiperidin-1-yl)propyl]ureidomethyl}benzoylamino)propionic acid] | > 50%
22 | CC(C)(C)C1CCC(N(Cc2ccc(OCCCC(=O)O)cc2)C(=O)Nc2cccc(SC(F)(F)F)c2)CC1 (stereo not drawn) [Example 198, 4-{4-[1-(4-tert-Butylcyclohexyl)-3-(3-trifluoromethylsulfanylphenyl)ureidomethyl]phenoxy}butyric acid] | > 50%
23 | O=C(O)CCNC(=O)c1ccc(CN(C(=O)Nc2ccc(Cl)c(C(F)(F)F)c2)c2nc3cc(Cl)c(Cl)cc3[nH]2)cc1 [Example 195, 3-{4-[3-(4-Chloro-3-trifluoromethylphenyl)-1-(5,6-dichloro-1H-benzimidazol-2-yl)ureidomethyl]benzoylamino}propionic acid] | > 50%
24 | O=C(O)CCNC(=O)c1ccc(CN(C(=O)Nc2ccc(Cl)c(C(F)(F)F)c2)C2C[C@H]2c2ccccc2)cc1 (stereo in doubt) [Example 188, 3-{4-[3-(4-Chloro-3-trifluoromethylphenyl)-1-(2-phenylcyclopropyl)ureidomethyl]benzoylamino}propionic acid] | > 50%
25 | CC(C)(C)C1CCC(N(Cc2ccc(C(=O)Nc3ccc(O)c([N+](=O)[O-])c3)cc2)C(=O)Nc2cc(Cl)cc(Cl)c2)CC1 (stereo not drawn) [Example 169, 4-[1-(4-tert-Butylcyclohexyl)-3-(3,5-dichlorophenyl)ureidomethyl]-N-(4-hydroxy-3-nitrophenyl)benzamide] | > 50%
26 | CC(C)(C)C1CCC(N(Cc2ccc(C(=O)Nc3ccc4c(c3)OCCO4)cc2)C(=O)Nc2cc(Cl)cc(Cl)c2)CC1 (stereo not drawn) [Example 168, 4-[1-(4-tert-Butylcyclohexyl)-3-(3,5-dichlorophenyl)ureidomethyl]-N-(2,3-dihydro-1,4-benzodioxin-6-yl)benzamide] | > 50%

More lines, now with the values ahead:

Row | inhibition at 1 µM | SMILES
27 | > 50% | CC(=O)N1CCc2cc(N(Cc3ccc(C(=O)NCCC(=O)O)cc3)C(=O)NCOc3ccc4ccccc4c3)ccc21 [Example 206, 3-{4-[1-(1-Acetyl-2,3-dihydro-1H-indol-5-yl)-3-(naphthalen-2-yloxymethyl)ureidomethyl]benzoylamino}propionic acid]
28 | > 50% | O=C(O)CCCOc1ccc(CN(C(=O)Nc2ccc(OC(F)(F)F)cc2)c2ccc(C3CCCCC3)cc2)cc1 [Example 216, 4-{4-[1-(4-Cyclohexylphenyl)-3-(4-trifluoromethoxyphenyl)ureidomethyl]phenoxy}butyric acid]
29 | > 50% | O=C(O)CCNC(=O)c1ccc(CN(C(=O)Nc2cccc(SC(F)(F)F)c2)c2ccc(C3CCCCC3)cc2)cc1 [Example 202, 3-{4-[1-(4-Cyclohexylphenyl)-3-(3-trifluoromethylsulfanylphenyl)ureidomethyl]benzoylamino}propionic acid]
30 | > 50% | O=C(O)CCCOc1ccc(CN(C(=O)Nc2ccc(OC(F)(F)F)cc2)C2C[C@H]2c2ccccc2)cc1 (stereo in doubt) [Example 222, 4-{4-[1-(2-Phenylcyclopropyl)-3-(4-trifluoromethoxyphenyl)ureidomethyl]phenoxy}butyric acid]
